Reference: patent US12372533B2, “Identification of immunogenic mutant peptides using genomic, transcriptomic and proteomic information” (Genentech, Inc., priority 2014, dated 2025)
Where a SMILES comes first, the peptide text is derived from it.

How the values were obtained:
Type in all cases: in vivo, mouse
wild type C57BL/6 mice = assay: Immunization of mice with long peptides plus adjuvant, CD8 T cell response by MHCI/peptide-specific dextramers; details: long peptides encoding the mutated epitopes plus adjuvant, day 0 and day 14, compared to adjuvant alone; FIG. 4A
MC-38 tumors = assay: Peptide-specific CD8 tumor-infiltrating cells (TILs) in MC-38 tumors, dextramer staining; details: for peptide-specific CD8 T cells in the tumor bed: FIG. 4B
From the text: (§1) The immunogenicity of these mutated peptides was confirmed in the context of the tumor by analyzing tumor-infiltrating cells (TILs).
C57BL/6 mice were implanted subcutaneously on the right flank with 1×10^5 MC-38 tumor cells. The whole tumor was isolated and digested with collagenase and DNAase to isolate TILs. TILs were stained with dextramers (as described above) followed by antibodies against CD45, Thy1.2, CD4, CD8 (BD Biosciences), PD-1 (eBiosciences) and TIM-3 (R&D Systems). Live/dead stain was used to gate on live cells.

TRAMP-C1 tumors = assay: Peptide-specific CD8 tumor-infiltrating cells in syngeneic TRAMP-C1 tumors
From the text: as §1

| Compound | CD8 T cell response (wild type C57BL/6 mice) | peptide-specific CD8 T cells in the tumor bed (MC-38 tumors) | relative abundance of peptide-specific CD8 T cells among Reps1, Adpgk and Dpagt1 (MC-38 tumors) | Adpgk-specific CD8 T cells in tumor (TRAMP-C1 tumors) |
| --- | --- | --- | --- | --- |
| SIIVFNLL [Dpagt1, mutant peptide presented on MHCI (H-2Kb) in the MC-38 cell line] | weak CD8 T cells response | enriched in the tumor bed | – | – |
| ASMTNMELM [Adpgk, mutant peptide presented on MHCI (H-2Db) in the MC-38 cell line] | strong CD8 T cell responses | enriched in the tumor bed | most abundant of the three | no Adpgk-specific CD8 T cells were detected |
| CC(C)C[C@H](NC(=O)[C@@H](NC(=O)[C@@H](NC(=O)[C@H](CC(=O)O)NC(=O)[C@H](CC(N)=O)NC(=O)[C@H](C)NC(=O)[C@H](CC(C)C)NC(=O)[C@H](CCC(N)=O)NC(=O)[C@H](C)N)C(C)C)C(C)C)C(=O)O [Reps1, AQLANDVVL] (H-AQLANDVVL-OH; N-terminus and C-terminus assumed) | strong CD8 T cell responses | enriched in the tumor bed | – | – |
